In patent publication US20190105367A1, “ANTIMICROBIAL 4-OXOQUINOLIZINES” (Emergent Product Development Gaithersburg Inc., priority 2011, published 2019):
In brackets after ≈: the same amount, converted by molar mass. Each block holds one compound with its values, some of them ahead of it.

Assays:
[1] = system: strains of A. baumannii and one strain of Acinetobacter sp.; assay: MIC with sub-inhibitory concentrations (0.25x MIC) of polymyxin B, panel of Acinetobacter strains (Example 4); format: cell-based; conditions: 1st experiment; […] polymyxin B; ATCC 19606, A329, A390 and A473 not taken
[2] = system: A. baumannii ATCC 19606; assay: MIC without and with sub-inhibitory polymyxin B (Example 4); format: cell-based, Acinetobacter baumannii; conditions: 1st experiment
[3] = system: A. baumannii ATCC 19606; assay: Preliminary MBC without and with sub-inhibitory polymyxin B (Example 4); format: cell-based, Acinetobacter baumannii; conditions: Acinetobacter baumannii, ATCC19606, read-out: MBC +0.06 μg/ml PB, A. baumannii ATCC 19606, +0.06 μg/ml polymyxin B, 1st experiment
[4] = system: A. baumannii J2; assay: MIC without and with sub-inhibitory polymyxin B (Example 4); format: cell-based, Acinetobacter baumannii; conditions: 1st experiment
[5] = system: A. baumannii J2; assay: Preliminary MBC without and with sub-inhibitory polymyxin B (Example 4); format: cell-based, Acinetobacter baumannii; conditions: Acinetobacter baumannii, J2, read-out: MBC +[…] PB, A. baumannii J2; +[…] polymyxin B; preliminary MBC; 1st experiment
[6] = system: Acinetobacter sp. (H064200250); assay: MIC without and with sub-inhibitory polymyxin B (Example 4); format: cell-based; conditions: 1st experiment
[7] = system: Acinetobacter sp. (H064200250); assay: Preliminary MBC without and with sub-inhibitory polymyxin B (Example 4); format: cell-based; conditions: Acinetobacter, read-out: MBC +[…] PB, Acinetobacter spp. H064200250; +[…] polymyxin B; preliminary MBC; 1st experiment
Procedure: (§1) The plates were incubated for 18-20 hours at 37° C. The MBC was read as the lowest concentration at which colony growth was ca. 90% less than the positive control (i.e. usually where single colonies or no colonies were observed).

[8] = system: A. baumannii A387; assay: MIC without and with sub-inhibitory polymyxin B (Example 4); format: cell-based, Acinetobacter baumannii; conditions: 1st experiment
[9] = system: A. baumannii A387; assay: Preliminary MBC without and with sub-inhibitory polymyxin B (Example 4); format: cell-based, Acinetobacter baumannii; conditions: Acinetobacter baumannii, A387, read-out: MBC +0.06 μg/ml PB, A. baumannii A387, +0.06 μg/ml polymyxin B, 1st experiment
[10] = system: A. baumannii NCTC 13301; assay: as above; format: cell-based, Acinetobacter baumannii; conditions: Acinetobacter baumannii, NCTC13301, read-out: MBC +[…] PB
Procedure: as §1

[11] = system: A. baumannii A401; assay: MIC without and with sub-inhibitory polymyxin B (Example 4); format: cell-based, Acinetobacter baumannii; conditions: 1st experiment
[12] = system: A. baumannii A401; assay: Preliminary MBC without and with sub-inhibitory polymyxin B (Example 4); format: cell-based, Acinetobacter baumannii; conditions: Acinetobacter baumannii, A401, read-out: MBC +0.06 μg/ml PB, A baumannii A 401, +0.06 μg/ml polymyxin B, 1st experiment
[13] = system: A. baumannii A472; assay: MIC without and with sub-inhibitory polymyxin B (Example 4); format: cell-based, Acinetobacter baumannii; conditions: 1st experiment
[14] = system: A. baumannii A472; assay: Preliminary MBC without and with sub-inhibitory polymyxin B (Example 4); format: cell-based, Acinetobacter baumannii; conditions: Acinetobacter baumannii, A472, read-out: MBC +[…] PB, A. baumannii A472; +[…] polymyxin B; preliminary MBC; 1st experiment
[15] = system: A. baumannii A489; assay: MIC without and with sub-inhibitory polymyxin B (Example 4); format: cell-based, Acinetobacter baumannii; conditions: 1st experiment
[16] = system: A. baumannii A489; assay: Preliminary MBC without and with sub-inhibitory polymyxin B (Example 4); format: cell-based, Acinetobacter baumannii; conditions: Acinetobacter baumannii, A489, read-out: MBC +[…] PB, A. baumannii A489; +[…] polymyxin B; preliminary MBC; 1st experiment
[17] = system: A. baumannii NCTC 13301; assay: MIC without and with sub-inhibitory polymyxin B (Example 4); format: cell-based, Acinetobacter baumannii
[18] = system: A. baumannii A14; assay: as above; format: cell-based, Acinetobacter baumannii; conditions: 1st experiment
[19] = system: A. baumannii A14; assay: Preliminary MBC without and with sub-inhibitory polymyxin B (Example 4); format: cell-based, Acinetobacter baumannii; conditions: A. baumannii A14, preliminary MBC, 1st experiment
[20] = system: GN52 Acinetobacter baumannii levofloxacin resistant clinical isolate; assay: Chequerboard synergy with polymyxin B, FICI (Example 6); format: cell-based
Description: (§2) A chequerboard technique was used to identify possible synergistic or antagonistic interactions between the 4-oxoquinolizines compounds, levofloxacin and polymyxin B. Levofloxacin was included as a control. […] Final dilutions were made in Mueller-Hinton broth, the specific test medium used for MIC determinations according to CLSI guidelines (CLSI. Methods for Dilution Antimicrobial Susceptibility Tests for Bacteria That Grow Aerobically; Approved Standard-Eighth Edition (2009). CLSI Document M07-A8. CLSI, Wayne, Pa. 19087-1898, USA.). The test medium used was a cation-adjusted Mueller-Hinton Broth II (Becton Dickinson UK Ltd., Oxford Science Park, Oxford, UK, OX4 4DQ).
(§3) The compounds 2, 33 and 35, as well as levofloxacin were tested in combination with polymyxin B on the following isolates: GN31 Acinetobacter baumannii—antibiotic susceptible clinical isolate, GN52 Acinetobacter baumannii—levofloxacin resistant clinical isolate, GN56 Acinetobacter baumannii—levofloxacin resistant clinical isolate, GN48 Klebsiella pneumoniae—NCTC 13443—NDM-1-metallo-β-lactamase and GN10 Pseudomonas aeruginosa—ATCC 27853—antibiotic susceptible reference isolate. All isolates are from the collection maintained at Quotient Bioresearch Ltd., Cambridge, UK.
(§4) The MIC values for the compounds and polymyxin B and levofloxacin were determined by broth microdilution following CLSI guidelines, and the MICs of agents in combination were determined as described by Pillai et. al (Pillai S K, Moellering R C Jr, Eliopoulis G M; Antimicrobial Combinations in Antibiotics in Laboratory Medicine 5th Edition (V. Lorian Ed) (2005) p 365-440). Initial MIC results were used to determine the microtiter plate patterns for the chequerboards. A suitable doubling dilution concentration range was selected such that the combination antibiotic range was at least two concentrations above and four concentrations below the MIC for each isolate. A fixed range of 0.008 to 8 mg/L was tested for polymyxin B except in the case of A. baumannii GN31 where a range of 0.004 to 4 mg/L was tested when in combination with the compounds 2, 33 and 35 as well as levofloxacin.
(§5) From the raw data, fractional inhibitory concentration indices (FICI) were determined for the compounds of the invention and levofloxacin together with polymyxin B for each isolate as follows:
(§6) FICX=concentration of the combination antibiotic in a particular row MIC of the combination drug alone
(§7) FICY=MIC of polymyxin B in combination[…]MIC of the polymyxin B alone
(§8) Additionally isobolograms were created to represent the same data visually. Here, the MIC of polymyxin B was plotted against every concentration of the combination antibiotic up to the MIC.

[21] = system: GN56 Acinetobacter baumannii levofloxacin resistant clinical isolate; assay: as above; format: cell-based
Description: as §2, §3, §4, §5, §6, §7, §8

[22] = in combination with polymyxin B
[23] = polymyxin B with the named antibiotic

MIC range with PB (0.25x MIC) Oct. 1, 2008 n = 8 [1]: ≤0.03 to 1 µg/mL
MIC without PB/MIC + PB ([2]; A. baumannii ATCC 19606, ratio, PB 0.06 μg/ml): ≥16
MIC ([2]; Acinetobacter baumannii, ATCC19606, read-out: MIC +0.06 μg/ml PB, A. baumannii ATCC 19606, +0.06 μg/ml polymyxin B): ≤ 0.03 µg/mL
MIC without PB/MIC + PB ([4]; A. baumannii J2, ratio, PB […]): 64
MIC ([4]; Acinetobacter baumannii, J2, read-out: MIC +[…] PB, A. baumannii J2, +[…] polymyxin B): 0.06 µg/mL (≈ 0.162 µM)
MIC without PB/MIC + PB ([6]; Acinetobacter spp. H064200250, ratio, PB […]): 128
MIC ([6]; Acinetobacter, read-out: MIC +[…] PB, Acinetobacter spp. H064200250, +[…] polymyxin B): 0.06 µg/mL (≈ 0.162 µM)
MIC without PB/MIC + PB ([8]; A. baumannii A387, ratio, PB 0.06 μg/ml): ≥32
MIC ([8]; Acinetobacter baumannii, A387, read-out: MIC +0.06 μg/ml PB, A. baumannii A387, +0.06 μg/ml polymyxin B): ≤ 0.03 µg/mL
MIC without PB/MIC + PB ([11]; A baumannii A 401, ratio, PB 0.06 μg/ml): 8
MIC ([11]; Acinetobacter baumannii, A401, read-out: MIC +0.06 μg/ml PB, A baumannii A 401, +0.06 μg/ml polymyxin B): 0.5 µg/mL
MIC without PB/MIC + PB ([13]; A. baumannii A472, ratio, PB […]): ≥128
MIC ([13]; Acinetobacter baumannii, A472, read-out: MIC +[…] PB, A. baumannii A472, +[…] polymyxin B): ≤ 0.03 µg/mL
MIC without PB/MIC + PB ([15]; A. baumannii A489, ratio, PB […]): ≥256
MIC ([15]; Acinetobacter baumannii, A489, read-out: MIC +[…] PB, A. baumannii A489, +[…] polymyxin B): ≤ 0.03 µg/mL
MIC without PB/MIC + PB ([17]; A. baumannii NCTC 13301, ratio, PB […], 1st experiment): ≥512
MIC ([17]; Acinetobacter baumannii, NCTC13301, read-out: MIC +[…] PB): ≤ 0.03 µg/mL
MIC +0.06 μg/ml PB ([18]; +0.06 μg/ml polymyxin B): 1 µg/mL
MIC ([18]; Acinetobacter baumannii, 24 h, without polymyxin B, read-out: MIC without PB): 16 µg/mL (≈ 43.2 µM)
MIC without PB/MIC + PB ([18]; ratio, PB 0.06 μg/ml): 16
SMILES: Cc1c(-c2ccc(N)c(F)c2)c(F)cn2c(=O)c(C(=O)O)cc(C3CC3)c12 [Compound 17, 8-(3-fluoro-4-amino-phenyl)-1-cyclopropyl-7-fluoro-9-methyl-4-oxo-quinolizine-3-carboxylic acid]
MBC [3]: ≤ 0.03 µg/mL
MBC [5]: 0.06 µg/mL (≈ 0.162 µM)
MBC [7]: 0.06 µg/mL (≈ 0.162 µM)
MBC [9]: ≤ 0.03 µg/mL
MBC [10]: ≤ 0.03 µg/mL
MBC [12]: 0.5 µg/mL
MBC [14]: 0.125 µg/mL (≈ 0.338 µM)
MBC [16]: ≤ 0.03 µg/mL
MBC +0.06 μg/ml PB ([19]; +0.06 μg/ml polymyxin B): 1 µg/mL
MBC ([19]; Acinetobacter baumannii, without polymyxin B, read-out: MBC without PB): 16 µg/mL (≈ 43.2 µM)

SMILES: Cc1c(-c2ccc(N)nc2)ccn2c(=O)c(C(=O)O)cc(C3CC3)c12 [Compound 33, 8-(6-amino-3-pyridyl)-1-cyclopropyl-9-methyl-4-oxo-quinolizine-3-carboxylic acid]
Combination drug MIC alone [20]: 4 mg/L
FICx [20]: 0.25
FICy [20]: 0.24
FICI ([20]; combination with polymyxin B): 0.49
Synergy ([20]; combination with polymyxin B): Synergy (Synergy (FICI <0.5))
Combination drug concentration in combination [20, 22]: 1 mg/L
Polymyxin B MIC in combination [20, 23]: 0.12 mg/L
Combination drug MIC alone [21]: 32 mg/L
FICx [21]: 0.06
FICy [21]: 0.24
FICI ([21]; combination with polymyxin B): 0.30
Synergy ([21]; combination with polymyxin B): Synergy (Synergy (FICI <0.5))
Combination drug concentration in combination [21, 22]: 2 mg/L
Polymyxin B MIC in combination [21, 23]: 0.12 mg/L
